Earlier results as cited in patent publication US20040180103A1, “Use of plants of the genus hypericum for facilitating the synchronization of a circadian rhythm” (priority 2001, published 2004).

Test system: circadian rhythms in Siberian hamsters
Conditions: 5 h phase shift under daily administration

For `COc1ccc2[nH]cc(CCNC(C)=O)c2c1` [melatonin], the “share of animals that adapt to the new light-dark cycle” value is given as 71%.
